According to PubChem BioAssay AID1745844 (Carcinogenic Potency Database (CPDB), 2022):
Calls of active or inactive are those of the source. How the calls were made is not given here.

Test system: rodent lifetime carcinogenesis bioassay, tumor incidence TD50
Experiment: carcinogenic potency in animals, long-term in vivo studies, CPDB compilation (AID 1745844)

Cc1cccc(Nc2cc(Cl)nc(SCC(=O)NCCO)n2)c1C
TD50 (mouse, strain CSb, females, in feed, site: liver, lesion: hepatocellular carcinoma, dosed 82 weeks, study length 82 weeks): 44.6 mg/kg/day
TD50 (rat, strain Fischer 344, males, in feed, site: liver, lesion: hepatocellular carcinoma, dosed 75 weeks, study length 82 weeks): 6.49 mg/kg/day

CN(N=O)c1ccc(C=Cc2ccnc3ccccc23)cc1
TD50 (rat, strain Fischer, females, in feed, site: liver, lesion: hyperplastic nodule, dosed 34 weeks, study length 52 weeks): 0.468 mg/kg/day
TD50 (rat, strain Fischer, males, in feed, site: liver, lesion: carcinoma, dosed 34 weeks, study length 52 weeks): 4.37 mg/kg/day
TD50 (rat, strain Fischer, males, in feed, site: liver, lesion: hyperplastic nodule, dosed 34 weeks, study length 52 weeks): 1.38 mg/kg/day

Cc1[nH]cnc1CSCCN=C(NC#N)N(C)N=O
carcinogen call (mouse, strain C57BL/6, females, in drinking water, site: liver, lesion: several types, types named in the paper, dosed 102 weeks, study length 104 weeks): negative (inactive)
carcinogen call (mouse, strain C57BL/6, females, in drinking water, site: lung, lesion: one or several types, types not named, dosed 102 weeks, study length 104 weeks): negative (inactive)
TD50 (rat, strain Fischer 344, females, in drinking water, site: liver, lesion: neoplastic nodule, dosed 106 weeks, study length 131 weeks): 43.3 mg/kg/day (inactive)
TD50 (rat, strain Fischer 344, females, in drinking water, site: pituitary gland, lesion: one or several types, types not named, dosed 106 weeks, study length 131 weeks): 3.6 mg/kg/day (inactive)
TD50 (rat, strain Fischer 344, females, in drinking water, site: thyroid gland, lesion: one or several types, types not named, dosed 106 weeks, study length 131 weeks): 18.8 mg/kg/day (inactive)
carcinogen call (rat, strain Fischer 344, males, in drinking water, site: liver, lesion: neoplastic nodule, dosed 106 weeks, study length 131 weeks): negative (inactive)
carcinogen call (rat, strain Sprague-Dawley, females, by gavage, site: any site (literature study), lesion: malignant tumor, dosed 52 weeks, study length 104 weeks): negative (inactive)
carcinogen call (rat, strain Sprague-Dawley, females, by gavage, site: any site (literature study), lesion: several types, types named in the paper, dosed 52 weeks, study length 104 weeks): negative (inactive)
TD50 (rat, strain Sprague-Dawley, males, by gavage, site: any site (literature study), lesion: malignant tumor, dosed 52 weeks, study length 104 weeks): 4820 mg/kg/day (inactive)
carcinogen call (rat, strain Sprague-Dawley, males, by gavage, site: any site (literature study), lesion: several types, types named in the paper, dosed 52 weeks, study length 104 weeks): negative (inactive)

Oc1ccc(OCc2ccccc2)cc1
carcinogen call (mouse, strain B6AKF1, females, oral dosing, site: any site (literature study), lesion: several types, types named in the paper, dosed 76 weeks, study length 76 weeks): negative (inactive)
carcinogen call (mouse, strain B6AKF1, females, oral dosing, site: liver, lesion: hepatoma, dosed 76 weeks, study length 76 weeks): negative (inactive)
carcinogen call (mouse, strain B6AKF1, females, oral dosing, site: lung, lesion: adenoma, dosed 76 weeks, study length 76 weeks): negative (inactive)
carcinogen call (mouse, strain B6AKF1, males, oral dosing, site: any site (literature study), lesion: several types, types named in the paper, dosed 76 weeks, study length 76 weeks): negative (inactive)
carcinogen call (mouse, strain B6AKF1, males, oral dosing, site: liver, lesion: hepatoma, dosed 76 weeks, study length 76 weeks): negative (inactive)
carcinogen call (mouse, strain B6AKF1, males, oral dosing, site: lung, lesion: adenoma, dosed 76 weeks, study length 76 weeks): negative (inactive)
TD50 (mouse, strain B6C3F1, females, oral dosing, site: any site (literature study), lesion: several types, types named in the paper, dosed 76 weeks, study length 76 weeks): 1230 mg/kg/day (inactive)
carcinogen call (mouse, strain B6C3F1, females, oral dosing, site: liver, lesion: hepatoma, dosed 76 weeks, study length 76 weeks): negative (inactive)
carcinogen call (mouse, strain B6C3F1, females, oral dosing, site: lung, lesion: several types, types named in the paper, dosed 76 weeks, study length 76 weeks): negative (inactive)
TD50 (mouse, strain B6C3F1, males, oral dosing, site: any site (literature study), lesion: several types, types named in the paper, dosed 76 weeks, study length 76 weeks): 141 mg/kg/day (inactive)
TD50 (mouse, strain B6C3F1, males, oral dosing, site: liver, lesion: hepatoma, dosed 76 weeks, study length 76 weeks): 382 mg/kg/day (inactive)
TD50 (mouse, strain B6C3F1, males, oral dosing, site: lung, lesion: adenoma, dosed 76 weeks, study length 76 weeks): 382 mg/kg/day (inactive)

CC(C)COC(=O)c1ccc(O)cc1
TD50 (mouse, strain ICR/Jcl, females, in feed, site: any site (literature study), lesion: several types, types named in the paper, dosed 102 weeks, study length 106 weeks): 12300 mg/kg/day (inactive)
carcinogen call (mouse, strain ICR/Jcl, females, in feed, site: liver, lesion: one or several types, types not named, dosed 102 weeks, study length 106 weeks): negative (inactive)
TD50 (mouse, strain ICR/Jcl, females, in feed, site: lung, lesion: one or several types, types not named, dosed 102 weeks, study length 106 weeks): 37200 mg/kg/day (inactive)
TD50 (mouse, strain ICR/Jcl, males, in feed, site: any site (literature study), lesion: several types, types named in the paper, dosed 102 weeks, study length 104 weeks): 6570 mg/kg/day (inactive)
TD50 (mouse, strain ICR/Jcl, males, in feed, site: liver, lesion: one or several types, types not named, dosed 102 weeks, study length 104 weeks): 26300 mg/kg/day (inactive)
carcinogen call (mouse, strain ICR/Jcl, males, in feed, site: lung, lesion: one or several types, types not named, dosed 102 weeks, study length 104 weeks): negative (inactive)
